These results are taken from ChEMBL document CHEMBL4257461, “Schizophrenia: synthetic strategies and recent advances in drug design” (Medchemcomm, 2018).

A short description of data set [1]: Tmax in human at 9.75 mg, im administered as single dose. It is filed as ADME, organism-based. Particulars: in vivo.
Data set [2] is described as follows: Drug absorption in po dosed human. The format is ADME, organism-based. Particulars: in vivo, read-out: Drug absorption.
Data set [3] can be described thus: Oral bioavailability in human. The format is ADME, organism-based. Particulars: in vivo.
Data set [4] can be described thus: Terminal half life in po dosed human. The following applies: in vivo.
Data set [5] can be described thus: Drug excretion in po dosed human. The following applies: in vivo.
The nature of data set [6]: Half life in po dosed human plasma. The format is ADME, organism-based.
Data set [7] is described as follows: Half life in iv dosed human plasma. The format is ADME, organism-based.
The nature of data set [8]: Half life in im dosed human plasma. It is filed as ADME, organism-based.

A word on the Tmax: it is the time from dosing to the highest level. Regarding `O=C1CCc2ccc(OCCCCN3CCN(c4cccc(Cl)c4Cl)CC3)cc2N1` [ARIPIPRAZOLE], the Tmax in data set [1] came out at 3 h.
The bioavailability is the share of a dose that reaches the circulation, judged against a reference dose that is usually intravenous. Low readings indicate poor availability, high ones good availability. On to `CN1CCN(C2=Nc3cc(Cl)ccc3Nc3ccccc32)CC1` [CLOZAPINE], for which the Fa in data set [2] lay in the range of 90 to 95%. The molecule also registered a bioavailability in data set [3] of 50 to 60%.
Broadly, the half-life is the time in which the quantity being followed falls by half. Read a low half-life as fast loss. Turning to `OCCOCCN1CCN(C2=Nc3ccccc3Sc3ccccc32)CC1` [QUETIAPINE], in data set [4], the half-life is 6 h. Also, in data set [5], the dose excreted is < 1%.
On to `O=C(CCCN1CCC(O)(c2ccc(Cl)cc2)CC1)c1ccc(F)cc1` [HALOPERIDOL], for which the half-life is 24 h in data set [6], 14 h in data set [7] and 21 h in data set [8].
For `O=C1[C@@H]2[C@H]3CC[C@H](C3)[C@@H]2C(=O)N1C[C@@H]1CCCC[C@H]1CN1CCN(c2nsc3ccccc23)CC1` [LURASIDONE], the Fa in data set [2] fell in the range of 9 to 19%.
